Laboratory results: US20110014291A1, “Novel Polymorphs of Bosentan” (ACTAVIS GROUP PTC EHF, priority 2007, published 2011)

Test: dissolution properties of the solid form
Type: physicochemical
Conditions: conditions not given

dissolution properties: advantageous dissolution properties
Structure (SMILES): COc1ccccc1Oc1c(NS(=O)(=O)c2ccc(C(C)(C)C)cc2)nc(-c2ncccn2)nc1OCCO [amorphous form, bosentan]
